Data taken from PubChem BioAssay AID248 (DTP/NCI, 2004).
Several values for one entry are separate records, joined by “and”; a condition that tells them apart may be missing. Equal values may be shown once. Toxic doses and inconclusive results are not listed. Cut-off read from the data, not from the text of the source: active = T/C of 150% or more; inactive = T/C below 125%.

Tested on: L1210 leukemia ip in BDF1 mice, survival T/C
Test: NCI In Vivo Anticancer Drug Screen. Data for tumor model L1210 Leukemia (intraperitoneal) in B6D2F1 (BDF1) mice
Settings: endpoint: mean survival time, higher = longer survival
How it was run: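 Tumor was transplanted into mice, which were then dosed with test compound or vehicle alone. Survival was recorded for each group, and the treated figure was expressed relative to the control figure.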

[1] = dose: 50.0 mg/kg/injection, schedule: Q01DX001 (ip), vehicle: saline
[2] = dose: 75.0 mg/kg/injection, schedule: Q01DX001 (ip), vehicle: saline
[3] = dose: 100.0 mg/kg/injection, schedule: Q01DX001 (ip), vehicle: saline
[4] = dose: 100.0 mg/kg/injection, schedule: Q01DX009 (ip), vehicle: saline with Tween-80
[5] = dose: 200.0 mg/kg/injection, schedule: Q01DX009 (ip), vehicle: saline with Tween-80
[6] = dose: 400.0 mg/kg/injection, schedule: Q01DX009 (ip), vehicle: saline with Tween-80
[7] = dose: 100.0 mg/kg/injection, schedule: Q04DX003 (ip), vehicle: saline with Tween-80
[8] = dose: 200.0 mg/kg/injection, schedule: Q04DX003 (ip), vehicle: saline with Tween-80
[9] = dose: 400.0 mg/kg/injection, schedule: Q04DX003 (ip), vehicle: saline with Tween-80

Measured: T/C

OCCN1CCN(CC/C=C2\c3ccccc3COc3ccc(Cl)cc32)CC1
inactive: dose: 0.78 mg/kg/injection, schedule: Q03HX024 (ip), vehicle: saline 97 % of control | dose: 1.56 mg/kg/injection, schedule: Q03HX024 (ip), vehicle: saline 94 % of control | dose: 2.0 mg/kg/injection, schedule: Q01DX009 (ip), vehicle: saline 88 % of control | dose: 3.12 mg/kg/injection, schedule: Q01DX009 (ip), vehicle: saline 114 % of control and 123 % of control | dose: 3.12 mg/kg/injection, schedule: Q03HX024 (ip), vehicle: saline 96 % of control | dose: 3.12 mg/kg/injection, schedule: Q04DX003 (ip), vehicle: saline 97 % of control | dose: 4.0 mg/kg/injection, schedule: Q01DX009 (ip), vehicle: saline 98 % of control | dose: 6.25 mg/kg/injection, schedule: Q01DX009 (ip), vehicle: saline 107 % of control and 122 % of control | dose: 6.25 mg/kg/injection, schedule: Q04DX003 (ip), vehicle: saline 105 % of control and 120 % of control | dose: 8.0 mg/kg/injection, schedule: Q01DX009 (ip), vehicle: saline 96 % of control | dose: 12.5 mg/kg/injection, schedule: Q01DX001 (ip), vehicle: saline 106 % of control | dose: 12.5 mg/kg/injection, schedule: Q01DX009 (ip), vehicle: saline 114 % of control | dose: 12.5 mg/kg/injection, schedule: Q04DX003 (ip), vehicle: saline 103 % of control and 117 % of control | dose: 16.0 mg/kg/injection, schedule: Q01DX009 (ip), vehicle: saline 100 % of control | dose: 18.75 mg/kg/injection, schedule: Q01DX001 (ip), vehicle: saline 100 % of control | dose: 25.0 mg/kg/injection, schedule: Q01DX001 (ip), vehicle: saline 120 % of control | dose: 25.0 mg/kg/injection, schedule: Q04DX003 (ip), vehicle: saline 95 % of control and 119 % of control | dose: 37.5 mg/kg/injection, schedule: Q01DX001 (ip), vehicle: saline 120 % of control | [1] 101 % of control | dose: 50.0 mg/kg/injection, schedule: Q04DX003 (ip), vehicle: saline 101 % of control | [2] 88 % of control | [3] 118 % of control

C/C(CC(C)C)=N\NC(=O)Nc1ccc(Cl)c(Cl)c1
inactive: [4] 100 % of control and 112 % of control | dose: 100.0 mg/kg/injection, schedule: Q04DX002 (ip), vehicle: saline 94 % of control and 106 % of control | dose: 100.0 mg/kg/injection, schedule: Q04DX003 (ip), vehicle: saline 92 % of control | [5] 101 % of control and 112 % of control | dose: 200.0 mg/kg/injection, schedule: Q04DX002 (ip), vehicle: saline 93 % of control and 105 % of control | dose: 200.0 mg/kg/injection, schedule: Q04DX003 (ip), vehicle: saline 95 % of control | [6] 101 % of control and 106 % of control | dose: 400.0 mg/kg/injection, schedule: Q04DX002 (ip), vehicle: saline 95 % of control and 105 % of control | dose: 400.0 mg/kg/injection, schedule: Q04DX003 (ip), vehicle: saline 113 % of control

CC(=O)Nc1cc(Cl)c(Cl)cc1Cl
inactive: [7] 103 % of control | [8] 102 % of control | [9] 96 % of control

O=C(CI)OCC#CCOC(=O)CI
inactive: dose: 12.5 mg/kg/injection, schedule: Q01DX001 (ip), vehicle: carboxymethylcellulose (CMC) 98 % of control | dose: 12.5 mg/kg/injection, schedule: Q01DX009 (ip), vehicle: carboxymethylcellulose (CMC) 90 % of control and 92 % of control | dose: 12.5 mg/kg/injection, schedule: Q04DX002 (ip), vehicle: carboxymethylcellulose (CMC) 104 % of control and 110 % of control | dose: 12.5 mg/kg/injection, schedule: Q04DX003 (ip), vehicle: carboxymethylcellulose (CMC) 95 % of control | dose: 25.0 mg/kg/injection, schedule: Q01DX001 (ip), vehicle: carboxymethylcellulose (CMC) 103 % of control | dose: 25.0 mg/kg/injection, schedule: Q01DX009 (ip), vehicle: carboxymethylcellulose (CMC) 86 % of control | dose: 25.0 mg/kg/injection, schedule: Q04DX002 (ip), vehicle: carboxymethylcellulose (CMC) 98 % of control | dose: 25.0 mg/kg/injection, schedule: Q04DX003 (ip), vehicle: carboxymethylcellulose (CMC) 103 % of control | dose: 50.0 mg/kg/injection, schedule: Q01DX001 (ip), vehicle: carboxymethylcellulose (CMC) 92 % of control | dose: 50.0 mg/kg/injection, schedule: Q04DX002 (ip), vehicle: carboxymethylcellulose (CMC) 97 % of control and 103 % of control | dose: 50.0 mg/kg/injection, schedule: Q04DX003 (ip), vehicle: carboxymethylcellulose (CMC) 94 % of control

CN=C(NC)NCc1ccccc1
inactive: [1] 95 % of control | [3] 97 % of control

CC1=C(C#N)C2(CCN(C)CC2)C(C#N)=C(C)N1
inactive: dose: 75.0 mg/kg/injection, schedule: Q01DX001 (ip), vehicle: carboxymethylcellulose (CMC) 105 % of control | [2] 104 % of control | dose: 150.0 mg/kg/injection, schedule: Q01DX001 (ip), vehicle: carboxymethylcellulose (CMC) 109 % of control

S=c1oc2cccc3c2n1CCC3
inactive: [4] 113 % of control | [7] 97 % of control | [5] 101 % of control | [8] 107 % of control | [6] 98 % of control | [9] 97 % of control

O=C1NC(=O)C2C3OC(C(Br)C3Br)C12 (configuration not stated)
inactive: dose: 100.0 mg/kg/injection, schedule: Q01DX009 (ip), vehicle: acetone 86 % of control | [7] 93 % of control | dose: 200.0 mg/kg/injection, schedule: Q01DX009 (ip), vehicle: acetone 86 % of control | [8] 108 % of control | dose: 400.0 mg/kg/injection, schedule: Q01DX009 (ip), vehicle: acetone 88 % of control | [9] 95 % of control

CCCC#CC(O)(C(=O)OC)c1ccccc1 (configuration not stated)
inactive: dose: 100.0 mg/kg/injection, schedule: Q01DX001 (ip), vehicle: other 102 % of control | dose: 200.0 mg/kg/injection, schedule: Q01DX001 (ip), vehicle: other 103 % of control | dose: 400.0 mg/kg/injection, schedule: Q01DX001 (ip), vehicle: other 105 % of control

O=C(O)/C=C\C(=O)Nc1ccc2c(c1)OCO2
inactive: dose: 100.0 mg/kg/injection, schedule: Q01DX009 (ip), vehicle: Klucel (hydroxypropylcellulose) (HPC) 98 % of control | dose: 200.0 mg/kg/injection, schedule: Q01DX009 (ip), vehicle: Klucel (hydroxypropylcellulose) (HPC) 94 % of control | dose: 400.0 mg/kg/injection, schedule: Q01DX009 (ip), vehicle: Klucel (hydroxypropylcellulose) (HPC) 91 % of control

O=C(O)c1ccc(O)cn1
inactive: dose: 100.0 mg/kg/injection, schedule: Q01DX001 (ip), vehicle: carboxymethylcellulose (CMC) 93 % of control | dose: 200.0 mg/kg/injection, schedule: Q01DX001 (ip), vehicle: carboxymethylcellulose (CMC) 95 % of control | dose: 400.0 mg/kg/injection, schedule: Q01DX001 (ip), vehicle: carboxymethylcellulose (CMC) 95 % of control

CN(C)c1nc(=[N+](C)C)ss1
inactive: dose: 15.0 mg/kg/injection, schedule: Q01DX015 (ip), vehicle: saline 102 % of control | dose: 30.0 mg/kg/injection, schedule: Q01DX015 (ip), vehicle: saline 94 % of control | dose: 60.0 mg/kg/injection, schedule: Q01DX015 (ip), vehicle: saline 100 % of control | [7] 100 % of control | dose: 120.0 mg/kg/injection, schedule: Q01DX015 (ip), vehicle: saline 105 % of control | [8] 96 % of control
